Test results published in ChEMBL document CHEMBL4665869, “New thiazolopyrimidine as anticancer agents: Synthesis, biological evaluation, DNA binding, molecular modeling and ADMET study” (Bioorg Med Chem Lett, 2020).
Converted amounts (≈) assume the structure as drawn.

Columns and labels:
LOX IMVI = experiment: Growth inhibition of human LOX IMVI cells at 10 uM relative to control; format: functional; settings: read-out: GI
MDA-MB-468 = experiment: Growth inhibition of human MDA-MB-468 cells at 10 uM relative to control; format: functional; settings: read-out: GI
T47D = experiment: Growth inhibition of human T47D cells at 10 uM relative to control; format: functional; settings: read-out: GI
CCRF-CEM = experiment: Growth inhibition of human CCRF-CEM cells at 10 uM relative to control; format: functional; settings: read-out: GI
HL-60(TB) = experiment: Growth inhibition of human HL-60(TB) cells at 10 uM relative to control; format: functional; settings: read-out: GI
K562 = experiment: Growth inhibition of human K562 cells at 10 uM relative to control; format: functional; settings: read-out: GI
MOLT-4 = experiment: Growth inhibition of human MOLT-4 cells at 10 uM relative to control; format: functional; settings: read-out: GI
RPMI-8226 = experiment: Growth inhibition of human RPMI-8226 cells at 10 uM relative to control; format: functional; settings: read-out: GI
SR = experiment: Growth inhibition of human SR cells at 10 uM relative to control; format: functional; settings: read-out: GI
A549 = experiment: Growth inhibition of human A549 cells at 10 uM relative to control; format: functional; settings: read-out: GI
HOP-62 = experiment: Growth inhibition of human HOP-62 cells at 10 uM relative to control; format: functional; settings: read-out: GI
HOP-92 = experiment: Growth inhibition of human HOP-92 cells at 10 uM relative to control; format: functional; settings: read-out: GI
NCI-H226 = experiment: Growth inhibition of human NCI-H226 cells at 10 uM relative to control; format: functional; settings: read-out: GI
NCI-H23 = experiment: Growth inhibition of human NCI-H23 cells at 10 uM relative to control; format: functional; settings: read-out: GI
NCI-H322M = experiment: Growth inhibition of human NCI-H322M cells at 10 uM relative to control; format: functional; settings: read-out: GI
NCI-H460 = experiment: Growth inhibition of human NCI-H460 cells at 10 uM relative to control; format: functional; settings: read-out: GI
NCI-H522 = experiment: Growth inhibition of human NCI-H522 cells at 10 uM relative to control; format: functional; settings: read-out: GI
SW-620 = experiment: Growth inhibition of human SW-620 cells at 10 uM relative to control; format: functional; settings: read-out: GI
COLO 205 = experiment: Growth inhibition of human COLO 205 cells at 10 uM relative to control; format: functional; settings: read-out: GI
HCC 2998 = experiment: Growth inhibition of human HCC 2998 cells at 10 uM relative to control; format: functional; settings: read-out: GI
HCT-116 = experiment: Growth inhibition of human HCT-116 cells at 10 uM relative to control; format: functional; settings: read-out: GI
HCT-15 = experiment: Growth inhibition of human HCT-15 cells at 10 uM relative to control; format: functional; settings: read-out: GI
HT-29 = experiment: Growth inhibition of human HT-29 cells at 10 uM relative to control; format: functional; settings: read-out: GI
KM12 = experiment: Growth inhibition of human KM12 cells at 10 uM relative to control; format: functional; settings: read-out: GI
SF-268 = experiment: Growth inhibition of human SF-268 cells at 10 uM relative to control; format: functional; settings: read-out: GI
SF-295 = experiment: Growth inhibition of human SF-295 cells at 10 uM relative to control; format: functional; settings: read-out: GI
SF-539 = experiment: Growth inhibition of human SF-539 cells at 10 uM relative to control; format: functional; settings: read-out: GI
SNB-19 = experiment: Growth inhibition of human SNB-19 cells at 10 uM relative to control; format: functional; settings: read-out: GI
SNB-75 = experiment: Growth inhibition of human SNB-75 cells at 10 uM relative to control; format: functional; settings: read-out: GI
U-251 = experiment: Growth inhibition of human U-251 cells at 10 uM relative to control; format: functional; settings: read-out: GI
Malme-3M = experiment: Growth inhibition of human Malme-3M cells at 10 uM relative to control; format: functional; settings: read-out: GI
M14 = experiment: Growth inhibition of human M14 cells at 10 uM relative to control; format: functional; settings: read-out: GI
MDA-MB-435 = experiment: Growth inhibition of human MDA-MB-435 cells at 10 uM relative to control; format: functional; settings: read-out: GI
SK-MEL-2 = experiment: Growth inhibition of human SK-MEL-2 cells at 10 uM relative to control; format: functional; settings: read-out: GI
SK-MEL-28 = experiment: Growth inhibition of human SK-MEL-28 cells at 10 uM relative to control; format: functional; settings: read-out: GI
SK-MEL-5 = experiment: Growth inhibition of human SK-MEL-5 cells at 10 uM relative to control; format: functional; settings: read-out: GI
UACC-257 = experiment: Growth inhibition of human UACC-257 cells at 10 uM relative to control; format: functional; settings: read-out: GI
UACC-62 = experiment: Growth inhibition of human UACC-62 cells at 10 uM relative to control; format: functional; settings: read-out: GI
IGROV-1 = experiment: Growth inhibition of human IGROV-1 cells at 10 uM relative to control; format: functional; settings: read-out: GI
OVCAR-4 = experiment: Growth inhibition of human OVCAR-4 cells at 10 uM relative to control; format: functional; settings: read-out: GI
OVCAR-5 = experiment: Growth inhibition of human OVCAR-5 cells at 10 uM relative to control; format: functional; settings: read-out: GI
OVCAR-8 = experiment: Growth inhibition of human OVCAR-8 cells at 10 uM relative to control; format: functional; settings: read-out: GI
NCI/ADR-RES = experiment: Growth inhibition of human NCI/ADR-RES cells at 10 uM relative to control; format: functional; settings: read-out: GI
SK-OV-3 = experiment: Growth inhibition of human SK-OV-3 cells at 10 uM relative to control; format: functional; settings: read-out: GI
786-0 = experiment: Growth inhibition of human 786-0 cells at 10 uM relative to control; format: functional; settings: read-out: GI
A498 = experiment: Growth inhibition of human A498 cells at 10 uM relative to control; format: functional; settings: read-out: GI
ACHN = experiment: Growth inhibition of human ACHN cells at 10 uM relative to control; format: functional; settings: read-out: GI
CAKI-1 = experiment: Growth inhibition of human CAKI-1 cells at 10 uM relative to control; format: functional; settings: read-out: GI
RXF 393 = experiment: Growth inhibition of human RXF 393 cells at 10 uM relative to control; format: functional; settings: read-out: GI
SN12C = experiment: Growth inhibition of human SN12C cells at 10 uM relative to control; format: functional; settings: read-out: GI
TK-10 = experiment: Growth inhibition of human TK-10 cells at 10 uM relative to control; format: functional; settings: read-out: GI
UO-31 = experiment: Growth inhibition of human UO-31 cells at 10 uM relative to control; format: functional; settings: read-out: GI
PC-3 = experiment: Growth inhibition of human PC-3 cells at 10 uM relative to control; format: functional; settings: read-out: GI
DU-145 = experiment: Growth inhibition of human DU-145 cells at 10 uM relative to control; format: functional; settings: read-out: GI
MCF7 = experiment: Growth inhibition of human MCF7 cells at 10 uM relative to control; format: functional; settings: read-out: GI
MDA-MB-231 = experiment: Growth inhibition of human MDA-MB-231 cells at 10 uM relative to control; format: functional; settings: read-out: GI
Hs-578T = experiment: Growth inhibition of human Hs-578T cells at 10 uM relative to control; format: functional; settings: read-out: GI
BT-549 = experiment: Growth inhibition of human BT-549 cells at 10 uM relative to control; format: functional; settings: read-out: GI
DNA = experiment: Displacement of methyl green from DNA (unknown origin) assessed as DNA intercalation after 24 hrs by colorimetric assay; format: nucleic-acid assay

CC1=CN2C(=NC(/C=C/c3ccc(Cl)cc3)=CC2c2ccc(Cl)cc2)S1 (centres undefined)
inhibition of growth at 10 µM (LOX IMVI): < 10% | inhibition of growth at 10 µM (MDA-MB-468): < 10% | inhibition of growth at 10 µM (T47D): < 10% | inhibition of growth at 10 µM (CCRF-CEM): < 10% | inhibition of growth at 10 µM (HL-60(TB)): < 10% | inhibition of growth at 10 µM (K562): < 10% | inhibition of growth at 10 µM (MOLT-4): < 10% | inhibition of growth at 10 µM (RPMI-8226): < 10% | inhibition of growth at 10 µM (SR): < 10% | inhibition of growth at 10 µM (A549): < 10% | inhibition of growth at 10 µM (HOP-62): < 10% | inhibition of growth at 10 µM (HOP-92): < 10% | inhibition of growth at 10 µM (NCI-H226): < 10% | inhibition of growth at 10 µM (NCI-H23): < 10% | inhibition of growth at 10 µM (NCI-H322M): < 10% | inhibition of growth at 10 µM (NCI-H460): < 10% | inhibition of growth at 10 µM (NCI-H522): < 10% | inhibition of growth at 10 µM (SW-620): < 10% | inhibition of growth at 10 µM (COLO 205): < 10% | inhibition of growth at 10 µM (HCC 2998): < 10% | inhibition of growth at 10 µM (HCT-116): < 10% | inhibition of growth at 10 µM (HCT-15): < 10% | inhibition of growth at 10 µM (HT-29): < 10% | inhibition of growth at 10 µM (KM12): < 10% | inhibition of growth at 10 µM (SF-268): < 10% | inhibition of growth at 10 µM (SF-295): < 10% | inhibition of growth at 10 µM (SF-539): < 10% | inhibition of growth at 10 µM (SNB-19): < 10% | inhibition of growth at 10 µM (SNB-75): 17.3% | inhibition of growth at 10 µM (U-251): < 10% | inhibition of growth at 10 µM (Malme-3M): < 10% | inhibition of growth at 10 µM (M14): < 10% | inhibition of growth at 10 µM (MDA-MB-435): < 10% | inhibition of growth at 10 µM (SK-MEL-2): < 10% | inhibition of growth at 10 µM (SK-MEL-28): < 10% | inhibition of growth at 10 µM (SK-MEL-5): < 10% | inhibition of growth at 10 µM (UACC-257): < 10% | inhibition of growth at 10 µM (UACC-62): < 10% | inhibition of growth at 10 µM (IGROV-1): < 10% | inhibition of growth at 10 µM (OVCAR-4): < 10% | inhibition of growth at 10 µM (OVCAR-5): < 10% | inhibition of growth at 10 µM (OVCAR-8): < 10% | inhibition of growth at 10 µM (NCI/ADR-RES): < 10% | inhibition of growth at 10 µM (SK-OV-3): < 10% | inhibition of growth at 10 µM (786-0): < 10% | inhibition of growth at 10 µM (A498): 12.3% | inhibition of growth at 10 µM (ACHN): < 10% | inhibition of growth at 10 µM (CAKI-1): < 10% | inhibition of growth at 10 µM (RXF 393): < 10% | inhibition of growth at 10 µM (SN12C): < 10% | inhibition of growth at 10 µM (TK-10): < 10% | inhibition of growth at 10 µM (UO-31): < 10% | inhibition of growth at 10 µM (PC-3): < 10% | inhibition of growth at 10 µM (DU-145): < 10% | inhibition of growth at 10 µM (MCF7): < 10% | inhibition of growth at 10 µM (MDA-MB-231): < 10% | inhibition of growth at 10 µM (Hs-578T): < 10% | inhibition of growth at 10 µM (BT-549): < 10% | IC50 (DNA): 45.18 µg/mL (≈ 113 µM)
